Where two headings read alike, the source gives them in different places. Residues, ends and D or L forms follow the SMILES beside them. No end group written: not given here.
How the values were obtained:
[1] = test system: trypsin; assay: Peptide stability to trypsin, HPLC-MS; format: in vitro ADME; details: trypsin 20 μg/mL, peptide 100 μg/mL, incubation time not given; for Change after trypsin treatment, mass spectra: ESI-MS; for Change after trypsin treatment, HPLC chromatogram: HPLC C-18, UV 220 nm
Protocol: Peptide stability was evaluated under various conditions. To investigate the impact of temperature on peptide structure, samples were incubated at 37 °C and 60 °C for 24 h. A control sample was kept at -4 °C. To evaluate the distribution under acidic conditions, the peptides were dissolved in a 0.074 M HCl solution, resulting in a pH of 3. For evaluation under basic conditions, the peptides were dissolved in a 0.18 M NaOH solution, resulting in a pH of 11. A control sample was maintained at pH 7. Additionally, samples were exposed to trypsin solutions at a concentration of 20 µg/mL. All samples underwent analysis using High-Performance Liquid Chromatography (HPLC) coupled with Mass Spectrometry (LC/MS-2020 EV - Prominence; Shimadzu Corporation, Tokyo, Japan). The HPLC system comprised LC-10AD mobile phase pumps, an Ultrasphere C-18 column (5 µm; 4.6 × 250 mm), a UV-vis SPD-10AV detector set at a wavelength of 220 nm, and a mass spectrometer operating in electrospray ionization (ESI) mode with a quadrupole separator.
In mass spectrometry assays, an alkaline pH can lead to diverse outcomes. Specifically, in the analysis of proteins and peptides, an alkaline environment may induce unintended chemical modifications in certain samples, impacting ionization, fragmentation, and the detection of reference molecules. Additionally, the peptides underwent treatment with a trypsin solution at a concentration of 20 μg/mL.

[2] = test system: human RBC; assay: Hemolytic test; format: cell-based; details: 50 μM, 1 h at 37 °C, A570, 1 % TritonX-100 as positive control; highest percentage observed
Protocol: To perform the hemolytic test, human RBC was obtained from a volunteer donor. After centrifugation at 1000 xg for 5 min, the RBC pellets were resuspended in 5 % (vol/vol) sterile saline at different concentrations of peptides NATT2_06 and NATT4_01, and subsequently incubated at 37 °C for 1 hour. The supernatants were transferred to a 96-well plate, and the absorbance at 570 nm (A570) was measured. 0.12 % DMSO and 1 % TritonX-100 were used as negative and positive control, respectively. The hemolysis rate was calculated as Eq 1: Hemolysis%=A(sample)−A(DMSO)/A(Triton)−A(DMSO)x100

[3] = test system: G. mellonella larvae; assay: Toxicity in Galleria mellonella; format: in vivo; details: 10 µL of 50 µM injected into the last left proleg, ten larvae per group, 7 days, three independent experiments
Protocol: For this study, the methodologies described by Mylonakis et al. and Jorjão et al., with some modifications were employed. G. mellonella larvae in their final larval stage were used for the experiment. Ten randomly selected G. mellonella larvae of similar weight and size (250 to 350 mg) were used per group in all assays. Syringes (Hamilton Inc., USA) used for injections were sterilized with peracetic acid (Henkel - Ecolab GmbH, Düsseldorf, Germany) according to the manufacturer's instructions prior to inoculation. Each larva was injected with 10 µL of each peptide (NATT2_06 and NATT4_01) at a concentration of 50 µM into the last left proleg. A control group was injected with PBS to assess overall viability. The number of deceased G. mellonella was recorded every 24 h after peptide injection, with monitoring continuing for 7 days across three independent experiments. […] The experiment concluded either when all larvae in the experimental group had died or transitioned into the pupal form.

[4] = test system: Chikungunya virus (CHIKV, ECSA genotype) in Huh-7 cells; format: cell-based; details: vs untreated CHIKV control
Protocol: . First, the viral propagation and titration were performed in the adherent African green monkey kidney epithelial (Vero) cells (ATCC CRL-1586). The virus was grown in Vero cultured in MEM medium (Gibco, Waltham, MA, USA) supplemented with 10 % fetal bovine serum (FBS, Gibco), 100 U/mL penicillin, and 100 μg/mL streptomycin (Gibco, Waltham, MA, USA)-M10) for 48 h Then, the supernatant was collected, harvested, and titrated as previously described. The titer obtained for CHIKV was 9.3 × 10^6 PFU/ml.
The immortalized human hepatocytes derived from the hepatocarcinoma of an individual (Huh-7 lineage, CLS 300156) were cultured. The Huh-7 were grown in Minimum Essential Medium (Advanced MEM, Gibco®, USA), supplemented with 10 % (v/v) heat-inactivated fetal bovine serum (FBS) (Gibco®, USA), 100 U/mL penicillin, and 100 μg/mL streptomycin (PenStrep – Gibco®, USA), along with 2 mM L-glutamine (Gibco®, USA), and maintained in a humidified atmosphere with 5 % CO2 at 37 °C. […]
The second assay, named "co-treatment" (Figure S1b), involved removing the culture medium from the wells, washing with PBS, followed by simultaneous inoculation of CHIKV and peptides, diluted in the same manner in culture medium with the same supplementation, in triplicate. […] Cells were also monitored for 12 h. […]
After conducting the assays, each viral RNA in the samples' supernatant was extracted using the QIAamp® Viral RNA Mini Kit (QIAGEN®, Germany). […] For the molecular characterization of NATT peptide treatment, RNA samples extracted from the plaque challenge assays' supernatants and viral stock dilutions underwent quantitative reverse transcription PCR (RT-qPCR) assays. […]
For the RT-qPCR reaction, the AgPath-ID® One Step RT-qPCR kit (Applied Biosystems®, USA) was used for each extracted RNA in duplicate. […] All detection and quantification of viral RNA was done by real-time PCR of each sample (Table S1 and Figure S14). […]

[5] = test system: trypsin; details: cited from earlier work
Protocol: In the case of the peptide Cap11, this loss of activity occurs after 15 min of incubation. Conversely, a brief exposure of up to 5 min to trypsin enhances the antimicrobial activity of peptides such as Cap11–1-18m² by a factor of 2 [76]. […] The sp ...

[6] = various assays; cited from earlier work
Description: Similarly, peptides including HKPLP, Cap18, Cap11, Cap11–1-18m², Cecropin B, Cecropin P1, Melittin, Indolic ...

| Compound | time of incubation with trypsin until antimicrobial activity is entirely lost [5] | temperature withstood [6] | other results |
| --- | --- | --- | --- |
| CC(C)C[C@H](NC(=O)[C@H](CCCCN)NC(=O)[C@@H]1CCCN1C(=O)[C@H](CCCNC(=N)N)NC(=O)[C@H](CC(C)C)NC(=O)[C@@H](NC(=O)[C@@H](N)[C@@H](C)O)[C@@H](C)O)C(=O)N[C@@H](CCCCN)C(=O)N[C@@H](CO)C(=O)N[C@@H](CCCCN)C(N)=O [NATT2_06] (H-TTLRPKLKSK-NH2) | – | – | Change after trypsin treatment, mass spectra [1]: displayed notable changes in mass; Change after trypsin treatment, HPLC chromatogram [1]: displayed notable changes in mass; hemolysis [2]: 2%; Deaths of G. mellonella larvae [3]: only three deaths occurred |
| CC(C)C[C@H](NC(=O)[C@H](CCCCN)NC(=O)CNC(=O)[C@H](CC(C)C)NC(=O)CNC(=O)[C@H](Cc1ccc(O)cc1)NC(=O)[C@H](CCCCN)NC(=O)[C@H](CC(N)=O)NC(=O)[C@H](CCCCN)NC(=O)[C@H](C)NC(=O)[C@@H](NC(=O)[C@H](Cc1ccc(O)cc1)NC(=O)[C@@H](N)CC(C)C)C(C)C)C(N)=O [NATT4_01] (H-LYVAKNKYGLGKL-NH2) | – | – | Change after trypsin treatment, mass spectra [1]: fragments of the peptide were discernible; Change after trypsin treatment, HPLC chromatogram [1]: no notable shifts observed in the chromatograms; Percentage of viral inhibition, co-treatment ([4]; 25 μM): 25,31%; Percentage of viral inhibition, co-treatment ([4]; 50 μM): 22,62%; Percentage of viral inhibition, co-treatment ([4]; 3125 μM (so in the source)): 22,44%; Deaths of G. mellonella larvae [3]: no deaths were observed |
| Cap18 | ≤ 30 s | up to 100 °C | – |
| Cecropin B | ≤ 30 s | up to 100 °C | – |
| Cecropin P1 (SWLSKTAKKLENSAKKRISEGIAIAIQGGPR; Cecropin-P1; UniProt P14661 14-44, looked up) | ≤ 30 s | up to 100 °C | – |
| Indolicidin (ILPWKWPWWPWRR; ends and bridges not checked; UniProt P33046 131-143, looked up) | ≤ 30 s | up to 100 °C | – |
| Melittin | ≤ 30 s | up to 100 °C | – |

From article PMC11697409, “Design of Natterins-based peptides improves antimicrobial and antiviral activities” (Biotechnology Reports, 2024)
